Values joined by “and” are separate entries in the source; they are usually repeats but may differ in a detail not shown here. Equal values may be shown once.
Tests used:
Conditions in all cases: at 1 µM
[1] = target: T1, Serine/threonine-protein kinase TBK1 (Homo sapiens) (UniProt Q9UHD2)
T1 sequence (whole entry): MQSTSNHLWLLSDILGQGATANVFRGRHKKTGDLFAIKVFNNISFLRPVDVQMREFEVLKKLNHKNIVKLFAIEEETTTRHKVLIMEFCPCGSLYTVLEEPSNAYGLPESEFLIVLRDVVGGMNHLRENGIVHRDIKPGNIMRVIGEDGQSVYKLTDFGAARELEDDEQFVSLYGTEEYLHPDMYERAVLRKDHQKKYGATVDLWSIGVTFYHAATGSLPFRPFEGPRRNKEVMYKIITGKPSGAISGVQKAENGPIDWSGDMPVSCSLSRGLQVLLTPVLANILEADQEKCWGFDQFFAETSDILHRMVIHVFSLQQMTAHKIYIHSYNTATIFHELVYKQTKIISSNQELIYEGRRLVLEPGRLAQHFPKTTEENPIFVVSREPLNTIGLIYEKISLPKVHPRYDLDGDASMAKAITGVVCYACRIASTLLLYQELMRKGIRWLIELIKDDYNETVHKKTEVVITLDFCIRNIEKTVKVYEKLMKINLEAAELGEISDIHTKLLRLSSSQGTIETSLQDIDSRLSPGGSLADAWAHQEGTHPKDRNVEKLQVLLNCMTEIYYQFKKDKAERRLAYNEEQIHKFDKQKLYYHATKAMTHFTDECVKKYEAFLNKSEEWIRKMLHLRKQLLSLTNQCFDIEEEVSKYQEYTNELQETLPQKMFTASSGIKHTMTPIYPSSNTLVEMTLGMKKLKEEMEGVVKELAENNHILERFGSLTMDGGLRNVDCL

[2] = target: T2, Inhibitor of nuclear factor kappa-B kinase subunit epsilon (Homo sapiens) (UniProt Q14164)
T2 sequence (whole entry): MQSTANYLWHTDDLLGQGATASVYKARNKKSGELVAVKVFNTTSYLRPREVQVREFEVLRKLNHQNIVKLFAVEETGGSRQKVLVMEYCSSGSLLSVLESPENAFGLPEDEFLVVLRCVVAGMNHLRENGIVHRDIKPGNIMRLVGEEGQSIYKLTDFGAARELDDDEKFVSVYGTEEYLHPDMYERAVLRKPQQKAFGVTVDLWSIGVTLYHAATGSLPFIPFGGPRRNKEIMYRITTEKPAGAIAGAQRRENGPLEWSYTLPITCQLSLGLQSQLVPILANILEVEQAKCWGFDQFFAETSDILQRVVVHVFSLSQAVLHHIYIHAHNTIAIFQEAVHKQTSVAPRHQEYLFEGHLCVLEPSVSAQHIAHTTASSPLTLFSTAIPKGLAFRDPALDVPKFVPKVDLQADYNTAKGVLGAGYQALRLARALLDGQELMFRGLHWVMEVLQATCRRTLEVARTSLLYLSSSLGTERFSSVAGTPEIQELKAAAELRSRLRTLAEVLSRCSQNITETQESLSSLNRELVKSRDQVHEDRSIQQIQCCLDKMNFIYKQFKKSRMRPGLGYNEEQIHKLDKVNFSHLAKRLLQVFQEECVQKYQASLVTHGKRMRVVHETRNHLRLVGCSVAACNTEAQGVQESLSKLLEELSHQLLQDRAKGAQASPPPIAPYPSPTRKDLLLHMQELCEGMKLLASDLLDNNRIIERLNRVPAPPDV

[3] = target: T3, Inhibitor of nuclear factor kappa-B kinase subunit alpha (Homo sapiens) (UniProt O15111)
T3 sequence (whole entry): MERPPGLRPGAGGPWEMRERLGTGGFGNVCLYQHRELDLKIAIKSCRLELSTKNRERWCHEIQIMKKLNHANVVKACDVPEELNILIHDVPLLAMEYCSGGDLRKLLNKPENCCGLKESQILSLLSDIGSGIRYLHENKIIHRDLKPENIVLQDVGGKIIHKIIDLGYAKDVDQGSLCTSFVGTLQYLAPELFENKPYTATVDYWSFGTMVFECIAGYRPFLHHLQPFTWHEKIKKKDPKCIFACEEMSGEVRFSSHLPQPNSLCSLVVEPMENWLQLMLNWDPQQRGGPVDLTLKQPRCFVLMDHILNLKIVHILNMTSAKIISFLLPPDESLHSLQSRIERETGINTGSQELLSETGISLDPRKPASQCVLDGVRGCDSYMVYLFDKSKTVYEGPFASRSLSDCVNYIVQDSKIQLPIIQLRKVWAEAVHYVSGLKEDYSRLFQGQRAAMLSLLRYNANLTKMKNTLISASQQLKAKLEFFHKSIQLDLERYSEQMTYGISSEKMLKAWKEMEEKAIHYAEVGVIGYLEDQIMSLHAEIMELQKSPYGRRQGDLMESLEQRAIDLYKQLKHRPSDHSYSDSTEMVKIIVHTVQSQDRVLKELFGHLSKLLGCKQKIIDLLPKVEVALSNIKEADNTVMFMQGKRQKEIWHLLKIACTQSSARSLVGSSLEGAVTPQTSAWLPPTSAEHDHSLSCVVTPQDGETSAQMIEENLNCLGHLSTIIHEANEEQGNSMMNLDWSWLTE

[4] = target: T4, Inhibitor of nuclear factor kappa-B kinase subunit beta (Homo sapiens) (UniProt O14920)
T4 sequence (whole entry): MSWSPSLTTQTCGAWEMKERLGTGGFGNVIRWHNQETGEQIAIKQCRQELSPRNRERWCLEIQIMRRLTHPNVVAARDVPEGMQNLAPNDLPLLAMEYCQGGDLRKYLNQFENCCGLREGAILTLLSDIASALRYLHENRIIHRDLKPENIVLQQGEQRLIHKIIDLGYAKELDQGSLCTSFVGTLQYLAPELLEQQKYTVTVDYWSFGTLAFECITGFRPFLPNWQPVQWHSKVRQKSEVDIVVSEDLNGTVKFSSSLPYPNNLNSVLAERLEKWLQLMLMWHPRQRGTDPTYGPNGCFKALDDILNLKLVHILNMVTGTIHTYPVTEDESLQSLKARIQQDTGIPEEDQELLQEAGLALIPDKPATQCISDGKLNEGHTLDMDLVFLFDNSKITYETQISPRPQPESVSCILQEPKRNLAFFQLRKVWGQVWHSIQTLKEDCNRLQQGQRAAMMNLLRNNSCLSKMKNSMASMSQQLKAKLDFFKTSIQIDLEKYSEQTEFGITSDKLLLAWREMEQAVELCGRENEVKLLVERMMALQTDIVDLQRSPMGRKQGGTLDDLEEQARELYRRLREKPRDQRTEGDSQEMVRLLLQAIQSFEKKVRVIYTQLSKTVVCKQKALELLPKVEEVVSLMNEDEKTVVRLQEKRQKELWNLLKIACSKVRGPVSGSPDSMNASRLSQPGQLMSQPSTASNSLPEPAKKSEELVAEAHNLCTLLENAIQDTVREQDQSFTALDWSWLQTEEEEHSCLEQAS

| inhibition [1] | inhibition [2] | inhibition [3] | inhibition [4] | Compound |
| --- | --- | --- | --- | --- |
| -3% and 0% | -1% and 2% | 4% and 3% | 2% and 3% | COc1ccc2cc(-c3c(-c4ccncc4)nc(-c4ccc([S+](C)[O-])cc4)n3C)ccc2c1 (stereo not given) |
| 0% and 2% | 4% | 2% | -3% | CN1CCC(n2cnc(-c3ccc(F)cc3)c2-c2ccnc(N)n2)CC1 |
| 28% and 24% | 13% and 12% | 4% and 2% | -3% and -1% | CCCN1CCC=C(c2ccc(Nc3nc(Nc4ccccc4C(N)=O)c4cc[nH]c4n3)c(C)c2)C1 |
| 18% | 17% and 18% | 2% and 3% | -5% and -4% | CN(c1ccc(NC(=O)Nc2ccc(OC(F)(F)F)cc2)cc1)c1ccnc(Nc2cccc(S(N)(=O)=O)c2)n1 |
| 74% and 76% | 35% and 33% | 2% | -3% and -6% | COc1cccc(-c2c[nH]c3c(N/N=C/c4ccncc4)ncnc23)c1 |
| 11% and 12% | 1% and 4% | 1% | -2% and -1% | CS(=O)(=O)CCN(CC#N)Cc1ccc(-c2ccc3ncnc(Nc4ccc(OCc5cccc(F)c5)c(Cl)c4)c3c2)o1 |
| -3% and -2% | -4% and -2% | 2% | -2% and -5% | COc1ccc(COc2ccc(Cc3cnc(N)nc3N)cc2OC)cc1 |
| -5% | -3% and -2% | 19% and 13% | 1% and -2% | Fc1ccc(Nc2nccc(-c3c(-c4ccc(C(F)(F)F)cc4)nn4ncccc34)n2)cc1F |
| -5% and -7% | -5% | 1% and 0% | -3% and -1% | CC(C)c1ccc(-c2cc(-c3c[nH]nc3-c3ccccn3)ccn2)cc1 |
| -2% and -5% | -3% and 0% | 2% | -4% and -5% | OCCCNc1nccc(-c2c(-c3ccc(F)cc3)nn3cc(C(F)(F)F)ccc23)n1 |
| 4% and 1% | 0% and 1% | 0% and 1% | -3% and -1% | Nc1nc(-c2ccc(F)cc2)c(-c2ccc3ncccc3n2)s1 |
| 12% and 7% | -1% | 2% and 1% | -4% and -7% | CN(C)C(=O)O[C@@H]1CN[C@@H](C#Cc2cc3ncnc(Nc4ccc(OCc5cccc(F)c5)c(Cl)c4)c3s2)C1 |
| 14% and 16% | -1% and 0% | -3% and -4% | 2% | NCc1ccc(-c2nc(-c3ccc(Cl)c(O)c3)c(-c3ccncc3)[nH]2)cc1 |
| -2% and -5% | 0% and -3% | 0% and 11% | -3% | CC1=C(C(=O)Nc2ccc3[nH]ncc3c2)C(c2ccc3ccccc3c2)CC(=O)N1 (stereo not given) |
| -5% and -7% | -3% and -2% | -3% and 1% | -5% and -6% | c1ccc(Cc2nc3ccc(Nc4ncnc5ccccc45)cc3[nH]2)cc1 |

The next lines start with the compound.

| Compound | inhibition [1] | inhibition [2] | inhibition [3] | inhibition [4] |
| --- | --- | --- | --- | --- |
| CCn1c(-c2nonc2N)nc2c(C#CC(C)(C)O)ncc(OC3CCNCC3)c21 | 55% and 57% | 95% and 96% | 9% and 5% | -4% |
| CCn1c(-c2nonc2N)nc2cncc(C(=O)N3CC[C@H](N)C3)c21 | 32% and 36% | 54% and 53% | 35% and 28% | -1% and -5% |
| CCN1CCC(CC(=O)Nc2n[nH]c3nnc(-c4cccc(F)c4F)cc23)CC1 | 0% | -1% and -3% | 1% and 6% | -2% and -1% |
| COc1cc2ncnc(Nc3ccc4c(cnn4Cc4ccccc4)c3)c2cc1OC | 5% and 2% | 2% | 2% and -2% | 5% and -4% |
| CCn1c(-c2nonc2N)nc2ccccc21 | -2% and -3% | -1% and -2% | 24% | -5% and -4% |
| O=C(Nc1n[nH]c2cc(-c3ccccc3)ccc12)C1CC1 | 2% and 0% | -1% | 9% and -2% | -2% and -6% |
| Cc1cccc(Nc2ncc(-c3ccccc3)o2)c1 | 1% and 4% | 0% and 1% | -1% and -2% | 2% and 1% |
| NS(=O)(=O)c1ccc(N/N=C2\C(=O)Nc3ccc(Cl)cc32)cc1 | 5% and 4% | 2% and 1% | 2% | -3% and -5% |
| COc1ccc(Nc2ncc(-c3ccccc3)o2)cc1OC | 8% and 20% | 5% and 4% | 1% | -2% and -6% |
| Cc1ccc(-c2cc3c(NC(=O)C4CC4)ncnc3o2)cc1 | -2% and -3% | -4% and -3% | 0% and -1% | -2% and -4% |
| CNC(=O)c1cncc(/C=C/c2ccccc2Cl)c1 | 2% and 1% | 0% | 3% and 1% | -5% |
| Cc1ccc(C(=O)NC2CCCCC2)cc1-c1ccc(C(=O)NCC2CC2)cc1 | -2% and -3% | 0% and -1% | 9% and 7% | 5% and 0% |
| CCn1c(-c2nonc2N)nc2c(C#CC(C)(C)O)ncc(OC[C@@H]3CCCN3)c21 | 65% and 66% | 97% | 18% and 19% | -2% and -1% |
| O=C1Nc2ccccc2/C1=C/Nc1ccc2[nH]c(=O)[nH]c2c1 | 30% and 27% | 22% and 20% | 1% | -5% and -3% |
| CS(=O)(=O)CCNCc1ccoc1-c1ccc2ncnc(Nc3ccc(OCc4ccccc4)cc3)c2c1 | 5% and 2% | 3% | -2% | 5% and 4% |

From ChEMBL document CHEMBL2007661, “Compounds: GSK PKIS; Assays: UNC Frye lab” (2012)
